Values joined by “and” are separate entries in the source; they are usually repeats but may differ in a detail not shown here. Equal entries are not always repeated. “Also recorded” adds a separate entry of the source.
Assays:
[1] = Urine and faeces analysis by ICP-OES (Pt element); assay type: in vivo, mice; design: Pt in urine / Pt in feces: unit not given beside the values
Protocol: page 47: determined using ELISA kits according to manufacturer 's protocol. Determination of the blood circulation half-life. […], or CDDP (at a dose of 2.25 mg kg-1 Pt) was i.v. injected into healthy female BALB/c nude mice (6-8 weeks old). […] The collected blood was digested with concentrated HNO3 (65-70%, 2 mL) and HCl (36~38%, 1 mL) at 90 °C overnight. The residues were then diluted with 5 mL 2% HNO3 and 5% HCl solution, and the concentrations of Pt element were determined by ICP-OES, which were further applied to calculate the contents of Pt element in the blood. The plot of the percentage of Pt element remained in the blood versus injection time to yield the pharmacokinetic time. Urine and Faeces analysis. […] Urine and faeces were collected at 2 (for 0-2 h), 4 (for 2-4 h), 8 (for 4- 8 h) and 12 h (for […]), which were diluted in methanol and centrifuged at 3,600 × g for 10 min, followed by filtering via a 0.22 μm syringe filter. The solutions were analyzed by HPLC (660 nm detection) to characterize all the mCy-containing compounds. Using the established standard curves for […] Cy-COOH, the amount of each compound in the urine and faeces could be calculated, which were further applied to determine the percentage of them in the urine and faeces. The data were summarized in Supplementary Tables 5-8. […] Urine and faeces were collected and weighed. The urine and faeces were digested with concentrated HNO3 (65~70%) and HCl (36~38%) at 90 °C for 24 h. The solution was diluted to 5 mL 2% HNO3 and 5% HCl solution, and the concentration of Pt element was measured by ICP-OES, which was further applied to calculate the percentage of Pt in corresponding urine and faeces. The data were summarized in Supplementary Tables 9 and 10. 47

[2] = General design summary of signals and cytotoxicity (Fig. 1a)
Excerpt: P-CyPt is designed to (1) offer activatable near-infrared (NIR) FL and PA signals for bimodality imaging through ALP-mediated in situ self-assembly and (2) release CDDP for on-demand therapy via GSH-triggered disassembly (Fig. 1a). […] After systemic administration, P-CyPt as a small molecule can extravasate and penetrate deeply into tumor tissues (Fig. 1b). In tumor tissues that are membrane-bound ALP positive, rapid dephosphorylation of P-CyPt by the membrane-bound ALP generates CyPt, switching on NIR FL (λem = 710 nm) and PA signals (λ = 700 nm); moreover, CyPt with increased hydrophobicity is susceptible to self-assembly into Pt(IV) nanoparticles (Pt^IVNPs), which turns on another PA signal (λ = 750 nm) resulting from the aggregation-caused bathochromic shift. The on-site formed Pt^IVNPs can anchor on the cell membranes, which attenuate diffusion, prolong retention, and enhance translocation into cells[32],[33]. Within tumor cells, the abundant endogenous GSH can reduce Pt(IV) into Pt(II), producing negatively charged Cy-COOH that promotes NPs disassembly and accelerates release of CDDP intracellularly. This process dramatically raises intracellular CDDP’s concentration while depletes GSH’s level to effectively kill tumor cells. Moreover, the disassembly of Pt^IVNPs into Cy-COOH further increases NIR FL (called as “ON-ON”) as the aggregation-caused quenching (ACQ) effect is eliminated; however, the PA signal at 750 nm is turned off but the PA signal at 700 nm is kept at “ON” state. The sequential switches in NIR FL and PA bimodal imaging signals can allow P-CyPt to reliably monitor the ALP-triggered in situ self-assembly and GSH-driven disassembly process in vivo, facilitating to guide precise chemotherapy of tumors.

[3] = Urine and faeces analysis by HPLC (mCy-containing compounds); assay type: in vivo; settings: Time period 8-12 h; individual mice
[4] = Urine and faeces analysis by ICP-OES (Pt element); assay type: in vivo, mice; design: Pt in urine / Pt in feces: unit not given beside the values; remark: listed apart in the source
s.c. HeLa tumors = assay: Biodistribution study of Pt (ICP-OES); assay type: in vivo, mice
[5] = Side toxicity in s.c. HeLa tumor-bearing mice (body weight, BUN, CRE, H&E)
[6] = i.v. 2.25 mg kg-1 Pt, 0-2 h, ICP-OES

CC1(C)C(/C=C/C2=C3Oc4cc(O)c(Cl)cc4C=C3CCC2)=[N+](CCCNC(=O)[C@@H](Cc2ccccc2)NC(=O)[C@@H](Cc2ccccc2)NC(=O)CCC(=O)[O][Pt]([NH2])([NH2])([OH])([Cl])[Cl])c2ccccc21 [CyPt]
Percentage of Pt element excreted to the faeces ([1]; 2-4 h): 16.51 ± 1.34% | Percentage of Pt element excreted to the faeces ([1]; 4-8 h): 21.52 ± 1.73% | Percentage of Pt element excreted to the faeces [1, 6]: 0.63 ± 0.21% | Cytotoxicity [2]: Low | FL at 710 nm [2]: High | PA at 700 nm [2]: High | PA at 750 nm [2]: Low | Compound found in excreta (%), Supplementary Table S5 [3]: 0% | Compound found in excreta (%), Supplementary Table S6 [3]: 0.6127% and 0.8857% and 0.7667% | Compound found in excreta (%), Supplementary Table S7 [3]: 0.79% and 1.63% and 1.075% | Percentage of Pt element excreted to the faeces ([4]; 8-12 h): 3.69 ± 0.77%

CC1(C)C(/C=C/C2=C3Oc4cc(OP(=O)(O)O)c(Cl)cc4C=C3CCC2)=[N+](CCCNC(=O)[C@@H](Cc2ccccc2)NC(=O)[C@@H](Cc2ccccc2)NC(=O)CCC(=O)[O][Pt]([NH2])([NH2])([OH])([Cl])[Cl])c2ccccc21 [P-CyPt]
organ with the highest ID% g^−1 (s.c. HeLa tumors; 4 h post i.v. injection): tumors | ID% g^−1 of Pt in tumors (s.c. HeLa tumors; s.c. HeLa tumors, 4 h post i.v. (100 μM, 200 μL), ICP-OES): ~20.3% | Percentage of Pt element excreted to the faeces ([1]; 2-4 h): 5.92 ± 0.64% | Percentage of Pt element excreted to the urine ([1]; 2-4 h): 13.38 ± 1.45% | Percentage of Pt element excreted to the faeces ([1]; 4-8 h): 16.94 ± 1.87% | Percentage of Pt element excreted to the urine ([1]; 4-8 h): 9.24 ± 1.49% | Percentage of Pt element excreted to the urine ([1]; 8-12 h): 3.41 ± 0.84% | Pt in urine ([1]; Fig.6g, 0-2 h, mean of 3 mice): 15.772 | Pt in urine ([1]; Fig.6g, 0-2 h, single mice): 15.461 and 17.665 and 14.190 | Pt in urine ([1]; Fig.6g, 2-4 h, mean of 3 mice): 13.380 | Pt in urine ([1]; Fig.6g, 2-4 h, single mice): 13.090 and 14.953 and 12.095 | Pt in urine ([1]; Fig.6g, 4-8 h, mean of 3 mice): 9.236 | Pt in urine ([1]; Fig.6g, 4-8 h, single mice): 9.456 and 10.608 and 7.644 | Pt in urine ([1]; Fig.6g, 8-12 h, mean of 3 mice): 3.408 | Pt in feces ([1]; Fig.6h, 0-2 h, mean of 3 mice): 0.386 | Pt in feces ([1]; Fig.6h, 0-2 h, single mice): 0.346 and 0.489 and 0.323 | Pt in feces ([1]; Fig.6h, 2-4 h, mean of 3 mice): 5.927 | Pt in feces ([1]; Fig.6h, 2-4 h, single mice): 5.543 and 6.667 and 5.573 | Pt in feces ([1]; Fig.6h, 4-8 h, mean of 3 mice): 16.944 | Pt in feces ([1]; Fig.6h, 4-8 h, single mice): 16.548 and 18.982 and 15.301 | Pt in feces ([1]; Fig.6h, 8-12 h, mean of 3 mice): 4.404 | Pt accumulatively cleared (urine + faeces) ([1]; during 12 h): ~ 69.4% | Pt in feces ([1]; feces collected 0-2 h, mouse-1): 0.346 | Pt in feces ([1]; feces collected 0-2 h, mouse-2): 0.489 | Pt in feces ([1]; feces collected 0-2 h, mouse-3): 0.323 | Pt in feces ([1]; feces collected 2-4 h, mouse-1): 5.543 | Pt in feces ([1]; feces collected 2-4 h, mouse-2): 6.667 | Pt in feces ([1]; feces collected 2-4 h, mouse-3): 5.573 | Pt in feces ([1]; feces collected 4-8 h, mouse-1): 16.548 | Pt in feces ([1]; feces collected 4-8 h, mouse-2): 18.982 | Pt in feces ([1]; feces collected 4-8 h, mouse-3): 15.301 | Pt in feces ([1]; feces collected 8-12 h, mouse-1): 4.215 | Pt in feces ([1]; feces collected 8-12 h, mouse-3): 4.002 | Percentage of Pt element excreted to the faeces [1, 6]: 0.38 ± 0.090% | Percentage of Pt element excreted to the urine [1, 6]: 15.78 ± 1.76% | Pt in urine, mean ([1]; urine collected 0-2 h, mean of 3 mice): 15.772 | Pt in urine ([1]; urine collected 0-2 h, mouse-1): 15.461 | Pt in urine ([1]; urine collected 0-2 h, mouse-2): 17.665 | Pt in urine ([1]; urine collected 0-2 h, mouse-3): 14.190 | Pt in urine, mean ([1]; urine collected 2-4 h, mean of 3 mice): 13.380 | Pt in urine ([1]; urine collected 2-4 h, mouse-1): 13.090 | Pt in urine ([1]; urine collected 2-4 h, mouse-2): 14.953 | Pt in urine ([1]; urine collected 2-4 h, mouse-3): 12.095 | Pt in urine, mean ([1]; urine collected 4-8 h, mean of 3 mice): 9.236 | Pt in urine ([1]; urine collected 4-8 h, mouse-1): 9.456 | Pt in urine ([1]; urine collected 4-8 h, mouse-2): 10.608 | Pt in urine ([1]; urine collected 4-8 h, mouse-3): 7.644 | Pt in urine, mean ([1]; urine collected 8-12 h, mean of 3 mice): 3.408 | Pt in urine ([1]; urine collected 8-12 h, mouse-1): 3.228 | Pt in urine ([1]; urine collected 8-12 h, mouse-2): 4.327 | Pt in urine ([1]; urine collected 8-12 h, mouse-3): 2.669 | Cytotoxicity [2]: Low | FL at 710 nm [2]: Low | PA at 700 nm [2]: Low | PA at 750 nm [2]: Low | Compound found in excreta (%), Supplementary Table S5 [3]: 1.424% and 1.642% and 1.178% | Compound found in excreta (%), Supplementary Table S6 [3]: 0.04756% and 0.06874% and 0.05951% | Percentage of Pt element excreted to the faeces ([4]; 8-12 h): 4.40 ± 0.52% | Pt in urine ([4]; Fig.6g, 8-12 h, single mice): 3.228 and 4.327 and 2.669 | Pt in feces ([4]; Fig.6h, 8-12 h, single mice): 4.215 and 4.995 and 4.002 | Pt in feces ([4]; feces collected 8-12 h, mouse-2): 4.995 | body weight during treatment ([5]; 2.25 mg kg^−1 Pt i.v. x5, 21 days): similar | increase of blood urea nitrogen (BUN) level ([5]; day 21): not obviously upregulated | increase of creatinine (CRE) level ([5]; day 21): not obviously upregulated | H&E staining of major organs (side toxicity) ([5]; day 21 after 5 doses of 2.25 mg kg^−1 Pt): all organs looked normal; also recorded: no apparent cell death

Reference: paper PMC9925730, “Controlled sequential in situ self-assembly and disassembly of a fluorogenic cisplatin prodrug for cancer theranostics” (Nature Communications, 2023)
